Source: patent US8785460B2, “Tricyclic compounds and use thereof” (Takeda Pharmaceutical Company Limited, priority 2008, dated 2014)

Assays:
[1] = target: T1, human CRF1 receptor (Homo sapiens, UniProt P34998); test: Measurement of CRF Binding Inhibitory Rate (receptor binding experiment with 125I-CRF); conditions: human CRF1 receptor expressing CHO cellular membrane fraction, 50 pM 125I-CRF, room temperature 1.5 hr, 0.05 nM to 10 μM of compound; read-out: IC50 values (CRF binding inhibition)
T1 construct: expressed in transfected cells; host or cells: CHO cells (membrane fraction)
T1 sequence (P34998 24-415): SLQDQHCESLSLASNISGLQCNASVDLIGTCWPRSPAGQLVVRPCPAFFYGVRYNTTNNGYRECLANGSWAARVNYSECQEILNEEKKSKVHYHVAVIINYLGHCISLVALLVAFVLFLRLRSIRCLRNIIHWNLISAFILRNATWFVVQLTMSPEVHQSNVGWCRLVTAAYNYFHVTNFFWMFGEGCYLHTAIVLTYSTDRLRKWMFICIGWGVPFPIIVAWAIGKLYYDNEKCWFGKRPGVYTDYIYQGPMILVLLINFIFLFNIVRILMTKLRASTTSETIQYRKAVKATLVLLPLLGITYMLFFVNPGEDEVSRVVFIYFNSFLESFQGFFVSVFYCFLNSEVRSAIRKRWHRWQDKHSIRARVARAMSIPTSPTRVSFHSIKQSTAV

| Structure (SMILES) | IC50 [1] [nM] | melting point [°C] |
| --- | --- | --- |
| CCC(CC)c1ccc(Cl)c2nc3n(c12)CCCCN3c1ncc(C(C)=O)cc1C [Example 342, 1-{6-[10-Chloro-7-(1-ethylpropyl)-2,3,4,5-tetrahydro-1H-[1,3]diazepino[1,2-a]benzimidazol-1-yl]-5-methylpyridin-3-yl}ethanone] | < 1000 | 142 |
| CCC(O)c1ccc(Cl)c2nc3n(c12)CCCN3c1c(Br)cc(OC)cc1Br (centres unmarked) [Example 397, 1-[9-Chloro-1-(2,6-dibromo-4-methoxyphenyl)-1,2,3,4-tetrahydropyrimido[1,2-a]benzimidazol-6-yl]propan-1-ol] | < 1000 | 138 to 140 |
| CCC(OC(C)=O)c1ccc(Cl)c2nc3n(c12)CCCN3c1ccc(Cl)cc1Cl (racemic) [Example 238, 1-[9-Chloro-1-(2,4-dichlorophenyl)-1,2,3,4-tetrahydropyrimido[1,2-a]benzimidazol-6-yl]propyl acetate] | < 1000 | 174 to 176 |
| CCC(CC)c1ccc(Cl)c2nc3n(c12)CCCCN3c1ncc(N(C)C)cc1C [Example 66, 6-[10-Chloro-7-(1-ethylpropyl)-2,3,4,5-tetrahydro-1H-[1,3]diazepino[1,2-a]benzimidazol-1-yl]-N,N,5-trimethylpyridin-3-amine] | < 1000 | 188 to 190 |
| COc1ccc(N2CCCn3c2nc2c(Cl)ccc(C(O)(C4CC4)C4CC4)c23)c(C)n1 [Example 276, [9-Chloro-1-(6-methoxy-2-methylpyridin-3-yl)-1,2,3,4-tetrahydropyrimido[1,2-a]benzimidazol-6-yl](dicyclopropyl)methanol] | < 1000 | 208 to 210 |
| CCC(NS(C)(=O)=O)c1ccc(Cl)c2nc3n(c12)CCCN3c1ccc(Cl)cc1Cl (centres unmarked) [Example 373, N-{1-[9-Chloro-1-(2,4-dichlorophenyl)-1,2,3,4-tetrahydropyrimido[1,2-a]benzimidazol-6-yl]propyl}methanesulfonamide] | < 1000 | 125 to 126 |
| Cc1cc(Cl)cc(Cl)c1N1CCn2c1nc1cccc(C(O)(C3CC3)C3CC3)c12 [Example 428, Dicyclopropyl[1-(2,4-dichloro-6-methylphenyl)-2,3-dihydro-1H-imidazo[1,2-a]benzimidazol-5-yl]methanol] | < 1000 | 243 to 246 |
| CCC(CC)c1ccc(Cl)c2nc3n(c12)C(Cl)(Cl)C(=O)N3c1c(C)cc(Cl)cc1OC [Example 11, 3,3,8-Trichloro-1-(4-chloro-2-methoxy-6-methylphenyl)-5-(1-ethylpropyl)-1H-imidazo[1,2-a]benzimidazol-2(3H)-one] | < 1000 | 190 to 192 |
| CC/C(=N\OC(F)F)c1ccc(Cl)c2nc3n(c12)CCCN3c1c(C)nc(OC)nc1C [Example 193, (1E)-1-[9-Chloro-1-(2-methoxy-4,6-dimethylpyrimidin-5-yl)-1,2,3,4-tetrahydropyrimido[1,2-a]benzimidazol-6-yl]propan-1-one O-(difluoromethyl)oxime] | < 1000 | 199 to 200 |
| CCC(CC)c1ccc(Cl)c2nc3n(c12)CCCCN3c1cnc(OC)cc1C [Example 30, 10-Chloro-7-(1-ethylpropyl)-1-(6-methoxy-4-methylpyridin-3-yl)-2,3,4,5-tetrahydro-1H-[1,3]diazepino[1,2-a]benzimidazole] | < 1000 | 112 to 114 |
| CCN(CC)c1cccc2nc3n(c12)CC(CCO)N3c1ccc(Cl)cc1Cl (centres unmarked) [Example 74, 2-[1-(2,4-Dichlorophenyl)-5-(diethylamino)-2,3-dihydro-1H-imidazo[1,2-a]benzimidazol-2-yl]ethanol] | < 1000 | 222 to 223 |
| CCC(O)c1ccc(Cl)c2nc3n(c12)CCCN3c1c(Cl)cc(OC)cc1Cl (centres unmarked) [Example 394, 1-[9-Chloro-1-(2,6-dichloro-4-methoxyphenyl)-1,2,3,4-tetrahydropyrimido[1,2-a]benzimidazol-6-yl]propan-1-ol] | < 1000 | 206 to 208 |
| CCC(OC(C)=O)c1ccc(Cl)c2nc3n(c12)CCCN3c1ncc(Cl)cc1Cl (centres unmarked) [Example 171, 1-[9-Chloro-1-(3,5-dichloropyridin-2-yl)-1,2,3,4-tetrahydropyrimido[1,2-a]benzimidazol-6-yl]propyl acetate] | < 1000 | 157 to 159 |
| COc1ccc(N2CCCn3c2nc2c(Cl)ccc(C(OCC(F)(F)F)C4CC4)c23)c(C)n1 (centres unmarked) [Example 277, 9-Chloro-6-[cyclopropyl (2,2,2-trifluoroethoxy)methyl]1-(6-methoxy-2-methylpyridin-3-yl)-1,2,3,4-tetrahydropyrimido[1,2-a]benzimidazole] | < 1000 | 158 to 160 |
| CCC(OC)c1cccc2nc3n(c12)CCCN3c1ccc(Cl)cc1Cl (centres unmarked) [Example 93, 1-(2,4-Dichlorophenyl)-6-(1-methoxypropyl)-1,2,3,4-tetrahydropyrimido[1,2-a]benzimidazole] | < 1000 | 151 to 153 |
| CCC(CC)c1ccc(Cl)c2nc3n(c12)CCCCN3c1ccc(C(=O)NC)cc1C [Example 49, 4-[10-Chloro-7-(1-ethylpropyl)-2,3,4,5-tetrahydro-1H-[1,3]diazepino[1,2-a]benzimidazol-1-yl]-N,3-dimethylbenzamide] | < 1000 | 127 to 128 |
| Cc1cnc(N2CCCn3c2nc2c(Cl)ccc(C(O)(C4CC4)C4CC4)c23)c(C)n1 [Example 176, [9-Chloro-1-(3,5-dimethylpyrazin-2-yl)-1,2,3,4-tetrahydropyrimido[1,2-a]benzimidazol-6-yl](dicyclopropyl)methanol] | < 1000 | 152 to 153 |
| CCC(OC(C)=O)c1ccc(Cl)c2nc3n(c12)CCCN3c1ccc(C(C)=O)cc1Cl (centres unmarked) [Example 250, 1-[1-(4-Acetyl-2-chlorophenyl)-9-chloro-1,2,3,4-tetrahydropyrimido[1,2-a]benzimidazol-6-yl]propyl acetate] | < 1000 | 183 to 186 |
| COc1nc(C)c(N2CCCn3c2nc2c(Cl)ccc(C(OCC(F)(F)F)C4CC4)c23)c(C)n1 (centres unmarked) [Example 189, 9-Chloro-6-[cyclopropyl(2,2,2-trifluoroethoxy)methyl]-1-(2-methoxy-4,6-dimethylpyrimidin-5-yl)-1,2,3,4-tetrahydropyrimido[1,2-a]benzimidazole] | < 1000 | 225 to 227 |
| CCN(CC)c1cccc2nc3n(c12)CCCN=C3c1ccc(Cl)cc1Cl [Example 511, 1-(2,4-Dichlorophenyl)-N,N-diethyl-4,5-dihydro-3H-[1,4]diazepino[1,2-a]benzimidazol-7-amine] | < 1000 | 93 to 94 |
| CCC(CC)c1ccc(Cl)c2nc3n(c12)CCCCN3c1cnc(C(C)=O)cc1C [Example 60, 1-{5-[10-Chloro-7-(1-ethylpropyl)-2,3,4,5-tetrahydro-1H-[1,3]diazepino[1,2-a]benzimidazol-1-yl]-4-methylpyridin-2-yl}ethanone] | < 1000 | 144 to 145 |
| CCC(CC)c1ccc(Cl)c2nc3n(c12)CCCCN3c1cc(C)cc2c1ncn2C [Example 230, 10-Chloro-1-(1,6-dimethyl-1H-benzimidazol-4-yl)-7-(1-ethylpropyl)-2,3,4,5-tetrahydro-1H-[1,3]diazepino[1,2-a]benzimidazole] | < 1000 | 259 to 260 |
| CCC(CC)c1ccc(Cl)c2nc3n(c12)CCCCN3c1ccc(C(=O)N(C)C)cc1C [Example 50, 4-[10-Chloro-7-(1-ethylpropyl)-2,3,4,5-tetrahydro-1H-[1,3]diazepino[1,2-a]benzimidazol-1-yl]-N,N,3-trimethylbenzamide] | < 1000 | 113 to 114 |
| CCC(OC(=O)CO)c1ccc(Cl)c2nc3n(c12)CCCN3c1ccc(Cl)cc1Cl (centres unmarked) [Example 443, 1-[9-Chloro-1-(2,4-dichlorophenyl)-1,2,3,4-tetrahydropyrimido[1,2-a]benzimidazol-6-yl]propyl hydroxyacetate] | < 1000 | 191 to 193 |
| CCCC(O)(CCC)c1ccc(Cl)c2nc3n(c12)CCCN3c1c(C)cc(Cl)cc1Cl [Example 139, 4-[9-Chloro-1-(2,4-dichloro-6-methylphenyl)-1,2,3,4-tetrahydropyrimido[1,2-a]benzimidazol-6-yl]heptan-4-ol] | < 1000 | 176 to 178 |
| CCC(CC)c1ccc(Cl)c2nc3n(c12)CC(C)N3c1cnc(N(C)C)cc1C (centres unmarked) [Example 78, 5-[8-Chloro-5-(1-ethylpropyl)-2-methyl-2,3-dihydro-1H-imidazo[1,2-a]benzimidazol-1-yl]-N,N,4-trimethylpyridin-2-amine] | < 1000 | 204 to 206 |
| CCC(CC)c1ccc(Cl)c2nc3n(c12)CCCCN3c1ncc(Cl)cc1Cl [Example 62, 10-Chloro-1-(3,5-dichloropyridin-2-yl)-7-(1-ethylpropyl)-2,3,4,5-tetrahydro-1H-[1,3]diazepino[1,2-a]benzimidazole] | < 1000 | 175 to 176 |
| CCC(OC(=O)C1CC1)c1ccc(Cl)c2nc3n(c12)CCCN3c1ccc(OC)cc1Cl (centres unmarked) [Example 482, 1-[9-Chloro-1-(2-chloro-4-methoxyphenyl)-1,2,3,4-tetrahydropyrimido[1,2-a]benzimidazol-6-yl]propyl cyclopropanecarboxylate] | < 1000 | 130 to 132 |
